Laboratory results published in publication PMC6887759, “The C-Type Lysozyme from the upper Gastrointestinal Tract of Opisthocomus hoatzin, the Stinkbird” (International Journal of Molecular Sciences, 2019).

How the values were obtained:
[1] = biological target: T1, OhLys-kexB (E35A variant used for the ligand complexes) (Opisthocomus hoazin, UniProt Q91159, INS20KR/E54A); experiment: X-ray crystallography, co-crystallisation; format: binding; details: density essentially identical to the chitohexaose co-crystal, subsites -1 to -3 (poorly ordered -4); not fully refined; mature numbering
T1 construct: gene LYZ; mature enzyme, 126 residues in wild type, secreted from Aspergillus oryzae; Lys-Arg inserted between Glu1 and Ile2 (uncleaved kexB site), N-terminus EKRIIPRCELV; monomer in asymmetric unit
T1 sequence (Q91159 other isoform, or with tags, fused parts or gaps INS20KR/E54A): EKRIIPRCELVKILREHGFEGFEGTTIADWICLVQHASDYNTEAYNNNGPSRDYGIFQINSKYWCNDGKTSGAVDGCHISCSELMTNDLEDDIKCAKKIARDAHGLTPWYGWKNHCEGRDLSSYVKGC

[2] = biological target: T1, OhLys-kexB (E35A variant used for the ligand complexes); experiment: X-ray crystallography, co-crystallisation; format: biochemical; details: added as chitohexaose; hydrolysed by residual activity, so only sugars in -1 to -3 (weak -4) seen; intact hexamer not observed; mature numbering

| SMILES | X-ray crystallography, co-crystallisation [1] | X-ray crystallography, co-crystallisation [2] |
| --- | --- | --- |
| CC(=O)N[C@H]1[C@H](O[C@H]2[C@H](O)[C@@H](NC(C)=O)C(O)O[C@@H]2CO)O[C@H](CO)[C@@H](O[C@@H]2O[C@H](CO)[C@@H](O[C@@H]3O[C@H](CO)[C@@H](O)[C@H](O)[C@H]3NC(C)=O)[C@H](O)[C@H]2NC(C)=O)[C@@H]1O (some centres unmarked) [chitotetraose] | The density for the chitotetraose ligand is essentially identical to this | – |
| CC(=O)N[C@H]1[C@H](O[C@H]2[C@H](O)[C@@H](NC(C)=O)[C@H](O[C@H]3[C@H](O)[C@@H](NC(C)=O)C(O)O[C@@H]3CO)O[C@@H]2CO)O[C@H](CO)[C@@H](O[C@@H]2O[C@H](CO)[C@@H](O[C@@H]3O[C@H](CO)[C@@H](O[C@@H]4O[C@H](CO)[C@@H](O)[C@H](O)[C@H]4NC(C)=O)[C@H](O)[C@H]3NC(C)=O)[C@H](O)[C@H]2NC(C)=O)[C@@H]1O (some centres unmarked) [chitohexaose] | – | hydrolyse; at the high protein concentrations of a prolonged crystallization, the chitohexaose substrate |
